In data set [1] the test system is cytoadherence of P. falciparum parasitised red cells to C32 melanoma cells. Description: C32 melanoma cell cytoadherence assay with SNO-cysteine-treated parasitised red cells. The conditions noted are these: Expt 5: JR strain, SNO-cysteine final concentration 5 mM, 40 minutes, parasitised red cells resuspended in 2% w/v borate. It counts as cell-based, Plasmodium falciparum.

Another data set relates to endothelial cells. The conditions noted are these: 0.2 mmol/l, 24 hours in conjunction with IL-1; cited from earlier work.
The subject of another data set is VCAM-1. The conditions noted are these: 0.2 mmol/l, 24 hours in conjunction with IL-1; cited from earlier work.

Results on two compounds are retold here after patent US7179615B1 (priority 1997, dated 2007).

With `N[C@@H](CSN=O)C(=O)O` [SNO-cysteine], the “binding (cytoadherence to C32 melanoma cells)” value in data set [1] is reported as 0%.

As to `N[C@@H](CCC(=O)N[C@@H](CSN=O)C(=O)NCC(=O)O)C(=O)O` [SNO-glutathione], the endothelial toxicity entry in the data set with endothelial cells is on record as “minimal endothelial toxicity”. Also, the “inhibition of VCAM-1” value in the data set with VCAM-1 is given as “maximal inhibition of VCAM-1”.
